Results taken from paper PMC12040169 (PLOS Biology, 2025).

Assay: in vitro
Settings: human, hela cells, % viability

| Compound | viability at 28.5 h, 10 µM |
| --- | --- |
| O=C(O)c1ccc(NC(=O)c2cn(-c3ccccc3)nc2-c2ccccc2)cc1 [CBK296120] | 94.4% |
| COCc1cccc(-c2nccnc2OC(c2ccccc2)c2ccccc2)c1 [CBK106960] | 101% |
| O=C(O)c1cccc2c1Sc1ccccc1O2 [CBK017129] | 90.8% |
| CCc1nnc2sc(-c3ccccc3Br)nn12 [CBK269533] | 67.4% |
| CCOC(=O)c1c(NC(=O)CSc2nnc3ccccn23)sc2c1CCC(C)C2 (stereo not drawn) [CBK265668] | 89% |
| Cc1ccc(S(=O)(=O)N2CCN(C)CC2)cc1NC(=O)c1ccc(Br)o1 [CBK034260C] | 99.3% |
| O=C(N[C@H]1CCN2C(=O)c3cc(-c4ccccc4)ccc3NC(=O)[C@H]12)C1CCCC1 [CBK289349] | 91.6% |
| CCc1ccc(CN2CCC(Oc3ccccc3F)(C(=O)O)CC2)nc1 [CBK307528] | 93.1% |
| Cc1csc(C(Cc2ccsc2)NC(=O)C2CC3C=CC2O3)n1 (stereo not drawn) [CBK285108] | 102% |
| CCNC(=O)N1CCN(CCOC(c2ccc(F)cc2)c2ccc(F)cc2)CC1 [CBK024943C] | 95.6% |
| CC1CCCN(Cc2c(C3CCCNC3)[nH]c3ncccc23)C1 (stereo not drawn) [CBK285112] | 70.3% |
| Cc1nn(C)cc1-c1cncn1CCN(C)C1CCCC1 [CBK281780] | 95.8% |
| CN(CP(=O)(O)CCc1ccccc1)S(C)(=O)=O [CBK263068] | 95.1% |
| O=C(CN1CCC(c2ccc(F)cc2)CC1)NCc1ccco1 [CBK283641] | 94.9% |
| O=C(O)Cn1cc(C(=O)COc2ccccc2)c2ccccc21 [CBK286708] | 85.4% |
| CCN1CCC(CNS(=O)(=O)c2ccc(N3CCCC3=O)cc2)CC1 [CBK305663] | 101% |
| Cc1cccn2c(=O)cc(CN3CCC(c4cnn(C)c4)CC3)nc12 [CBK305806] | 101% |
| Cc1cccc(-c2ncc(NC(=O)CCc3cccnc3)nc2-c2ccc(N)cc2)c1 [CBK036684] | 86.9% |
| COc1nc2ccccc2nc1CCC(=O)O [CBK269356] | 89.1% |
| OCCNc1nc2cc(Cl)ccc2[nH]1 [CBK262295] | 101% |
| CC(=O)Nc1cccc(NC(=O)CSc2ncnc3c2nnn3C)c1 [CBK287829] | 91.9% |
| COc1ccc(S(=O)(=O)NCc2ccccn2)cc1NC(C)=O [CBK269554] | 103% |
| COc1cc(C)c(C)cc1S(=O)(=O)n1ccnc1C [CBK287579] | 108% |

| Compound | viability at 28.5 h, 10 µM |
| --- | --- |
| O=C(Nc1ccc(-c2ccccc2C(F)(F)F)s1)C(F)(F)F [CBK099942] | 96.3% |
| Cc1cc2ccccc2n2c(=O)n(Cc3cscn3)nc12 [CBK282381] | 102% |
| Cc1cccc(-c2nnc(SCC3CC3)n2CC2CCCCC2)c1 [CBK085423] | 87.7% |
| O=C(c1cncs1)N1CCn2nc(C(O)Cc3ccccc3)cc2C1 (stereo not drawn) [CBK306754] | 90.6% |
| Cc1cc(COc2nc3ccccc3nc2NCCC(C)O)no1 (stereo not drawn) [CBK173999] | 95.7% |
| COc1c(C(N)=O)c(O)c(OC)c2occc12 [CBK016255] | 80.5% |
| COc1cc(CNC(=O)c2cccnc2Sc2ccc(Cl)cc2)ccn1 [CBK297755] | 108% |
| O=C(COc1ccc(S(=O)(=O)N2CCOCC2)cc1)NCc1ccccc1 [CBK268533] | 98.6% |
| Cc1cc(C)cc(Oc2nccn3c(=O)[nH]nc23)c1 [CBK288451] | 89.5% |
| O=C(NCc1ccccc1)c1cccc(NC(=O)c2cc(-c3ccncc3)nc3ccc(Cl)cc23)c1 [CBK267769] | 117% |
| NCCCNC(=O)c1cc2ccccc2[nH]1 [CBK267639] | 88.4% |
| COc1ccc(-c2cc(C(=O)O)nn2C2CCS(=O)(=O)C2)cc1 (stereo not drawn) [CBK286990] | 87.8% |
| Cn1nc2c(c1C(=O)N1CCc3[nH]c4ccccc4c3C1)CCCC2 [CBK281844] | 79.7% |
| Cc1noc(C)c1S(=O)(=O)Nc1ccsc1C(=O)Nc1ccc(F)cc1 [CBK004604] | 86.3% |
| O=C(c1csc(-c2ccccc2)n1)N1CCn2nc(C3CC3)cc2C1 [CBK304676] | 95.9% |
| O=C(COc1ccc(-c2cnc3ccccc3n2)cc1)c1cccc([N+](=O)[O-])c1 [CBK266367] | 86.8% |
| COc1ccc([C@@]23CC[C@@H](NC(=O)Nc4cc(F)c(F)c(F)c4)C[C@@H]2N(C)CC3)c(F)c1OC [CBK073909T] | 90.6% |
| CCCCN(CCCC)S(=O)(=O)c1nc2nc(C)cc(C)n2n1 [CBK022076] | 79.7% |
| CC(C)(C)OC(=O)NCCNCc1cc(F)cc(F)c1 [CBK056698] | 90.3% |
| CCC(CO)Nc1cncc(-c2ccc3c(c2)OCO3)n1 (stereo not drawn) [CBK065970] | 98.4% |
| O=[N+]([O-])c1ccc(O)c(/C=N/C(CO)(CO)CO)c1 [CBK261835] | 89.3% |
| CC(C)NC(=O)N1CCCC1c1nc(-c2ccc(Cl)cc2)c2ccccn12 (stereo not drawn) [CBK046947] | 84% |
| CSc1nsc(NC(=O)Nc2ccccc2)n1 [CBK027286] | 97.9% |

| Compound | viability at 28.5 h, 10 µM |
| --- | --- |
| Cc1ccc(NC(=O)CC(=O)NCCN2CCOCC2)cc1 [CBK262179] | 92.8% |
| COc1cccc(OC)c1-c1cn2ccnc2c(NCCc2ccccn2)n1 [CBK066173] | 109% |
| O=C(Nc1ccccc1C(=O)O)c1ccc(Cl)c(S(=O)(=O)N2CCCCC2)c1 [CBK261763] | 113% |
| COc1ccc(C2NC(C(=O)O)CS2)c(OC)c1 (stereo not drawn) [CBK260908] | 99.2% |
| CN1CCC(=NNC(=O)CN(c2cccc([N+](=O)[O-])c2)S(=O)(=O)c2ccccc2)CC1 [CBK262727] | 90.3% |
| CCc1nc2ccccc2n1CC(=O)N(Cc1cccnc1)C1CC1 [CBK304064] | 107% |
| COc1ccc2[nH]c(-c3cncn3CCCC(C)(C)CO)cc2c1 [CBK281778] | 90.9% |
| COc1ccc(C(C)C)cc1-c1cc(NCCc2cccnc2)n2nccc2n1 [CBK037097] | 104% |
| COC(=O)c1ccsc1NS(=O)(=O)c1cc(Br)ccc1OC [CBK039065] | 86.8% |
| CCN(CC)CCN1CCN(c2cc(-c3ccc(SC)cc3)ncn2)CC1 [CBK091203] | 93.3% |
| O=C(O)c1ccc(OC(=O)C2CCCC2)cc1 [CBK090156] | 103% |
| Cc1cccc(C(=O)NNC(=O)COc2cccc3ccccc23)c1O [CBK262993] | 87.7% |
| CS(=O)(=O)c1ccc(-c2ccc(C(=O)NCc3cccc(C(F)(F)F)c3)cn2)cc1 [CBK158874] | 91.4% |
| COc1c(Cl)cc(Cl)cc1C(=O)NC(=S)Nc1sc2c(c1C#N)CCCC2 [CBK268741] | 84.4% |
| O=C(NCc1ccccn1)c1cnn2c(C(F)(F)F)cc(-c3cccs3)nc12 [CBK268195] | 99.9% |
| c1ccc(Nc2nc(-c3cccs3)cn3ccnc23)cc1 [CBK066513] | 83.7% |
| Cc1csc2c(N3CCC(NCCc4ccnn4C)CC3)ncnc12 [CBK307515] | 89.8% |
| Cn1c(SCCOc2ccccc2Cl)nnc1-c1ccncc1 [CBK265969] | 111% |
| CCOc1ccccc1NC(=O)CC1Sc2ccc(C(F)(F)F)cc2NC1=O (stereo not drawn) [CBK263659] | 95.6% |
| Cc1c(NC(=O)C2CCN(c3ccccc3Cl)C2)nnn1C (stereo not drawn) [CBK306263] | 90.7% |
| CCN1CC2(CCN(CCCN(C)C)CC2)c2ccccc21 [CBK136988] | 84.5% |
| Cc1ccc(C2=NN(C(=O)CNc3cc(F)cc(F)c3)C(c3ccco3)C2)cc1 (stereo not drawn) [CBK297922] | 94.2% |
| O=C(Cc1ccncc1)NC1Cc2ccccc2C1 [CBK200351] | 94.1% |

| Compound | viability at 28.5 h, 10 µM |
| --- | --- |
| O=C(O)c1ccc2c(c1)C(=O)N(c1ccc(-c3ccc(N4C(=O)c5ccc(C(=O)O)cc5C4=O)cc3)cc1)C2=O [CBK261187] | 99.3% |
| CSCCN(C)C(=O)c1nnn(Cc2ccc(F)cc2F)c1C [CBK306468] | 93.2% |
| COc1ccc(-c2noc([C@@H]3Cc4[nH]cnc4CN3C(=O)CCC(=O)O)n2)cc1 [CBK288967] | 90.3% |
| CCCc1[nH]nc(O)c1Cc1cccc(C)c1 [CBK075035] | 91.3% |
| Cc1ccc(/C=C/C(=O)O)cc1S(=O)(=O)N(CCO)CCO [CBK264840] | 99% |
| Cn1ncc2c1CCCN(C(=O)COc1cccc(F)c1)C2 [CBK285257] | 96.9% |
| COc1ccc(C(=O)NCc2ccc(S(N)(=O)=O)cc2)cc1[N+](=O)[O-] [CBK263629] | 105% |
| CCCCN(C)c1nccnc1-c1ccc(CO)cc1 [CBK037666] | 92.3% |
| O=C(O)C1C(c2ccccc2)C(C(=O)Oc2cccc3ccccc23)C1c1ccccc1 (stereo not drawn) [CBK263869] | 110% |
| COc1cc(C(=O)N2CCC3(CCN(C(=O)Cc4c[nH]c5ccccc45)C3)C2)cc(OC)c1OC (stereo not drawn) [CBK131448] | 86.7% |
| CN1CCC(N(C)Cc2ccccc2[N+](=O)[O-])CC1 [CBK261565] | 93.8% |
| N#Cc1ccc(C(=O)N2CCC3(CC2)NC(=O)c2cc(-c4ccoc4)ccc2O3)cc1 [CBK115852] | 88.9% |
| O=C(O)/C=C/C(=O)NNC(=O)c1ccccc1O [CBK261789] | 97.4% |
| CCN(CC)CCN(Cc1ccc2c(c1)OCO2)C(=O)Nc1cccc(NC(C)=O)c1 [CBK159042] | 108% |
| O=C(c1coc(COc2cccc(F)c2)n1)N1CC(n2cccn2)C1 [CBK306842] | 77.2% |
| CC1CCCC(C)N1C(=O)Cn1c(=O)n(C)c2ncccc21 (stereo not drawn) [CBK282389] | 107% |
| O=C(Nc1ccc2ncccc2c1)c1cnc(-c2cccc(C(F)(F)F)c2)c(-c2cccnc2)c1 [CBK037591] | 89.9% |
| O=C(O)C(c1c[nH]c2cc(F)ccc12)N1CCN(c2ccccc2)CC1 (stereo not drawn) [CBK286675] | 102% |
| O=C(CC1CC1)Nc1cc(-c2ccncc2)c[nH]c1=O [CBK116585] | 91.9% |
| N#C/C(=C\c1ccc(OCC(=O)O)cc1)C(N)=S [CBK268917] | 102% |
| Cc1cc(CN2CCCC2)cc(C)c1O [CBK028736C] | 96.3% |
